Source: patent publication US7166622B2, “Substituted phenylsulfonamide inhibitors of beta amyloid production” (Wyeth, priority 2002, dated 2007)

What was measured:
beta amyloid production = experiment: Repressor Release Assay (RRA); assay type: cell-based; details: for fold induction at 20 µg/mL: Conc 20 μg/ml; for fold induction at 20 µg/mL / fold induction at 10 µg/mL / APPI Fold Increase: luciferase activity over diluent control; for fold induction at 20 µg/mL / fold induction at 10 µg/mL: read-out: APPI Fold Increase; for fold induction at 10 µg/mL / APPI Fold Increase / APPI % of Example #98: Conc 10 μg/ml; for APPI % of Example #98: relative to Example 98
Method in brief: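 CHO-K1 cells transiently co-transfected with pRSVO-luc and an APP-lacI construct, replated, then treated in duplicate for 36-48 h at 37 °C, 5% CO2. Compounds diluted in 25 mM Hepes, with Hepes/1% DMSO as diluent control. Luciferase read-out in relative light units; toxicity scored 1 non-toxic, 0 toxic.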

CHO-K1 cells = experiment: Toxicity in RRA (loss of luciferase signal); details: toxicity = loss of signal (<0.75 fold increase)
Experimental: The beta amyloid inhibitory activity of the compounds of the present invention was determined using the Repressor Release Assay (RRA).
“Fold Increase” refers to the amount of luciferase activity (measured in relative light units) over diluent control. “SEM” refers to the standard error of the mean for fold increase.

| melting point | Compound | fold induction at 20 µg/mL (beta amyloid production) | (%)APPI Toxicity (CHO-K1 cells; Conc 20 μg/ml) | fold induction at 10 µg/mL (beta amyloid production) | (%)APPI Toxicity (CHO-K1 cells; Conc 10 μg/ml) | APPI Fold Increase (beta amyloid production) | APPI % of Example #98 (beta amyloid production) |
| --- | --- | --- | --- | --- | --- | --- | --- |
| 89 to 92 °C | CC[C@H](C)[C@@H](CO)NS(=O)(=O)c1ccc(Cl)c(N)c1 [Example 14, 3-Amino-4-chloro-N-[(1S,2S)-1-(hydroxymethyl)-2-methylbutyl]benzenesulfonamide] | 1.9 | 1 (1=non-toxic) | – | – | – | – |
| – | C=CCC(O)(CC=C)[C@@H](NS(=O)(=O)c1ccccc1F)[C@@H](C)CC [Example 264, N-{(1S)-2-allyl-2-hydroxy-1-[(1S)-1-methylpropyl]-4-pentenyl}-2-fluorobenzenesulfonamide] | – | – | 2 | 1 (1=non-toxic) | – | – |
| – | CC[C@H](C)[C@H](NS(=O)(=O)c1ccccc1F)C(O)(CC)CC [Example 265, N-{(1S)-2-ethyl-2-hydroxy-1-[(1S)-1-methylpropyl]butyl}-2-fluorobenzenesulfonamide] | – | – | 1.78 | 1 (1=non-toxic) | – | – |
| – | CC[C@H](C)[C@H](NS(=O)(=O)c1ccccc1F)C(O)(c1ccc(F)cc1)c1ccc(F)cc1 [Example 266, N-{(1S,2S)-1-[bis(4-fluorophenyl)(hydroxy)methyl]-2-methylbutyl}-2-fluorobenzenesulfonamide] | – | – | 1.57 | 1 (1=non-toxic) | – | – |
| – | CC[C@H](C)[C@H](NS(=O)(=O)c1ccccc1F)C(O)(c1ccc(Cl)cc1)c1ccc(Cl)cc1 [Example 267, N-{(1S,2S)-1-[bis(4-chlorophenyl)(hydroxy)methyl]-2-methylbutyl}-2-fluoro benzenesulfonamide] | – | – | – | 1 (1=non-toxic) | 1.59 fold | 58.97% |
| – | C=C(C)C(O)(C(=C)C)[C@@H](NS(=O)(=O)c1ccccc1F)[C@@H](C)CC [Example 268, 2-fluoro-N-{(1S)-2-hydroxy-2-isopropenyl-3-methyl-1-[(1S)-1-methylpropyl]-3-butenyl}benzenesulfonamide] | – | – | 1.75 | 1 (1=non-toxic) | – | – |
| – | CC[C@H](C)[C@H](NS(=O)(=O)c1ccccc1F)C(O)(c1ccc(OC)cc1)c1ccc(OC)cc1 [Example 269, 2-fluoro-N-((1S,2S)-1-{hydroxy[bis(4-methoxyphenyl)]methyl}-2-methylbutyl)benzenesulfonamide] | – | – | 1.58 | 1 (1=non-toxic) | – | – |
| – | C/C=C(\C)C(O)(/C(C)=C/C)[C@@H](NS(=O)(=O)c1ccccc1F)[C@@H](C)CC (stereo partly drawn) [Example 270, 2-fluoro-N-{(1S,3E)-2-hydroxy-3-methyl-2-[(1E)-1-methyl-1-propenyl]-1-[(1S)-1-methylpropyl]-3-pentenyl}benzenesulfonamide] | – | – | 1.86 | 1 (1=non-toxic) | – | – |
| – | C=CCCC(O)(CCC=C)[C@@H](NS(=O)(=O)c1ccccc1F)[C@@H](C)CC [Example 271, N-{(1S)-2-(3-butenyl)-2-hydroxy-1-[(1S)-1-methylpropyl]-5-hexenyl}-2-fluorobenzenesulfonamide] | – | – | 1.82 | 1 (1=non-toxic) | – | – |
| 115 to 118 °C | O=S(=O)(N[C@H](CO)C1CCCCC1)c1ccc(Cl)cc1 [Example 272, 4-Chloro-N-[(1S)-1-cyclohexyl-2-hydroxyethyl]benzenesulfonamide] | 2.3 | 1 (1=non-toxic) | – | – | – | – |
| 127 to 128 °C | O=S(=O)(N[C@H](CO)c1ccccc1)c1ccc(Cl)cc1 [Example 273, 4-Chloro-N-[(1S)-2-hydroxy-1-phenylethyl]benzenesulfonamide] | 1.5 | 1 (1=non-toxic) | – | – | – | – |
| 83 to 85 °C | CC(C)[C@@H](CO)NS(=O)(=O)c1ccc(Cl)cc1 [Example 274, 4-Chloro-N-[(1S)-1-(hydroxymethyl)-2-methylpropyl]benzenesulfonamide] | 2.1 | 1 (1=non-toxic) | – | – | – | – |
| 89 to 94 °C | CC(C)[C@@H](CO)NS(=O)(=O)c1ccc(Br)cc1 [Example 275, 4-Bromo-N-[(1S)-1-(hydroxymethyl)-2-methylpropyl]benzenesulfonamide] | 2 | 1 (1=non-toxic) | – | – | – | – |
| 118 to 120 °C | CC[C@H](C)[C@@H](CO)NS(=O)(=O)c1ccc(I)cc1 [Example 276, 4-Iodo-N-[(1S,2S)-1-(hydroxymethyl)-2-methylbutyl]benzenesulfonamide] | 2 | 1 (1=non-toxic) | – | – | – | – |
| 128 to 130 °C | CC(C)(C)[C@@H](CO)NS(=O)(=O)c1ccc(Cl)cc1 [Example 277, 4-Chloro-N-[(1S)-1-(hydroxymethyl)-2,2-dimethylpropyl]benzenesulfonamide] | 1.5 | 1 (1=non-toxic) | – | – | – | – |
| – | N-{(1S)-2-allyl-2-hydroxy 1-[(1S)-1-methylpropyl]-4-pentenyl}-4-bromo benzenesulfonamide [Example 216] | – | – | – | 1 (1=non-toxic) | 1.58 fold | 72.76% |
